Where two headings read alike, the source gives them in different places.
Tests used:
[1] = biological target: human Nav1.7 (Homo sapiens (Human), UniProt Q15858); assay: FLIPR sodium dye assay for sodium channel blocking activity (recombinant Nav1.7/HEK293 cells); format: cell-based
[2] = system: SNL-induced mechanical hyperalgesia; assay: SNL-induced mechanical hyperalgesia model (paw pressure test, PWT); format: in vivo, rat; details: dosed orally at 100 mg/kg, vehicle 0.5% methyl cellulose, one hour before testing
Procedure: In the Chung model, the spinal nerve ligation (SNL) model of neuropathic pain is used to produce mechanical hyperalgesia, thermal hyperalgesia, and tactile allodynia in rats. Surgery is performed under isoflurane/O2 inhalation anesthesia. Following induction of anesthesia a 3 cm incision is made and the left paraspinal muscles are separated from the spinous process at the L4-S2 levels. The L6 transverse process is carefully removed with a pair of small rongeurs to identify visually the L4-L6 spinal nerves. The left L5 (or L5 and L6) spinal nerve(s) is (are) isolated and tightly ligated with silk thread. […] The animals can also be assessed for response to noxious thermal stimuli or for tactile allodynia, as described below. […] Sensitivity to noxious mechanical stimuli was measured in animals using the paw pressure test to assess mechanical hyperalgesia. In rats, hind paw withdrawal thresholds (“PWT”), measured in grams, in response to a noxious mechanical stimulus were determined using an analgesymeter (Model 7200, commercially available from Ugo Basile of Italy), as described in Stein (Biochemistry & Behavior 31: 451-455 (1988)). […] PWT was determined once for each rat at each time point. PWT can be measured only in the injured paw, or in both the injured and non-injured paw. […]

[3] = recombinant human Nav1.7 in HEK293

human Nav1.7, sequence (Q15858 other isoform, or with tags, fused parts or gaps): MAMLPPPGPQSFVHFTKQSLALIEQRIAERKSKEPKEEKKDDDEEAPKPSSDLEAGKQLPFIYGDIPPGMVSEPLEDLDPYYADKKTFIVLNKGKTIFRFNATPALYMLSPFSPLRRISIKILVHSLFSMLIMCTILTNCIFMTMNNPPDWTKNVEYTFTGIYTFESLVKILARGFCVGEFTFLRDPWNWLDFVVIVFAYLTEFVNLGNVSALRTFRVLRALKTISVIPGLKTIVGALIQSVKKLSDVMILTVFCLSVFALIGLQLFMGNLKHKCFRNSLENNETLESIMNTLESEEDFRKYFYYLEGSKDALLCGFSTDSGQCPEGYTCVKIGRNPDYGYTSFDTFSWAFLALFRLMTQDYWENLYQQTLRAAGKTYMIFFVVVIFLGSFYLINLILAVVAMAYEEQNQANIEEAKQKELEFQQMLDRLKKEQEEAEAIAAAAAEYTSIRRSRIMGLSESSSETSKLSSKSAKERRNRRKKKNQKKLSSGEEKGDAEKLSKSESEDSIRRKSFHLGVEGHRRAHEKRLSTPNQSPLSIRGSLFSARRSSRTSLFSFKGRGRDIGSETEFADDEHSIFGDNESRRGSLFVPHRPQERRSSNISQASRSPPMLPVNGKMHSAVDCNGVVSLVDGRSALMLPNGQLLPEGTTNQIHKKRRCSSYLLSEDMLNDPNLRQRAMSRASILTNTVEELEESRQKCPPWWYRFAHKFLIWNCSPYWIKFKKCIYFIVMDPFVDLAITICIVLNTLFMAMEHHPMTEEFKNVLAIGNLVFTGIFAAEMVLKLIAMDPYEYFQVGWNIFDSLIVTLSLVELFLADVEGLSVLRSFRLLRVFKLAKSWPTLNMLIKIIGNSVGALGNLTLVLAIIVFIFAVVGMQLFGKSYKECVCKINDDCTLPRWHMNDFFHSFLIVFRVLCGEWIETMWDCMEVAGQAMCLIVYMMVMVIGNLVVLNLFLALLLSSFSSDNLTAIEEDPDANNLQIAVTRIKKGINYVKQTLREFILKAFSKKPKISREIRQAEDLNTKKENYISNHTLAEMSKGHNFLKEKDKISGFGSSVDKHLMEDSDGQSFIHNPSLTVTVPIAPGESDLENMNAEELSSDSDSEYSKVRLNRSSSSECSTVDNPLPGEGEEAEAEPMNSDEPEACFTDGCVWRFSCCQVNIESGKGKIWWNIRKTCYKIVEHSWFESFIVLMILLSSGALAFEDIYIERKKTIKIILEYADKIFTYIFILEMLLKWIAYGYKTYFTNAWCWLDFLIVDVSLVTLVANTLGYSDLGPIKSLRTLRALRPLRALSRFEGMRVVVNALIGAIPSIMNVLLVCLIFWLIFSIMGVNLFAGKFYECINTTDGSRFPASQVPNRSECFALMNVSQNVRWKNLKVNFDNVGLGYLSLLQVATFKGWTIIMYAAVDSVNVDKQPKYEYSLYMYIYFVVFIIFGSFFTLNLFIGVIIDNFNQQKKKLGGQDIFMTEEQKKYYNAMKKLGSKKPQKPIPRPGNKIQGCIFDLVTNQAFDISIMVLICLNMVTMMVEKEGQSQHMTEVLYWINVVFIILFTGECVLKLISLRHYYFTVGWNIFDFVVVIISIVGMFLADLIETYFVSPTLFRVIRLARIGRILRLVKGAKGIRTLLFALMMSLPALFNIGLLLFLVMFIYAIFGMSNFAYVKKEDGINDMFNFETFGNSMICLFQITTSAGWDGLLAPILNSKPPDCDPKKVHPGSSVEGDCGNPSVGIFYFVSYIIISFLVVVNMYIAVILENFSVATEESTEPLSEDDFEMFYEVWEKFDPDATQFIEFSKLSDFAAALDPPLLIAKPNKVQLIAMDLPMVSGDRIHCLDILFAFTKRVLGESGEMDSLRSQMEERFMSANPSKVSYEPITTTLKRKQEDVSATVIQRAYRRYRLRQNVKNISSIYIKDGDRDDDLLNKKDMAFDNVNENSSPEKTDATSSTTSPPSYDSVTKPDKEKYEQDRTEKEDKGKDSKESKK

C[C@H](Nc1cc(C(N)=O)nc(-c2ccc(Oc3ccc(F)cc3)c(CO)c2)n1)C(N)=O [compound 97, (S)-6-((1-amino-1-oxopropan-2-yl)amino)-2-(4-(4-fluorophenoxy)-3-(hydroxymethyl)phenyl)pyrimidine-4-carboxamide]
IC50 [1]: 5.72 µM

C[C@H](Nc1cc(C(N)=O)nc(-c2ccc(Oc3ccc(OC(F)(F)F)cc3)cc2)n1)C(N)=O [compound 84, (S)-6-((1-amino-1-oxopropan-2-yl)amino)-2-(4-(4-(trifluoromethoxy)phenoxy)phenyl)pyrimidine-4-carboxamide]
SNL-induced mechanical hyperalgesia in rats [2]: reduced SNL-induced mechanical hyperalgesia

C[C@H](Oc1cc(C(N)=O)nc(-c2ccc(Oc3ccc(Cl)cc3F)cc2)n1)C(N)=O [Cpd No. 93]
IC50 [1, 3]: 0.083 µM

C[C@H](Oc1cc(C(N)=O)nc(-c2ccc(Oc3cc(Cl)ccc3F)cc2)n1)C(N)=O [Cpd No. 92]
IC50 [1, 3]: 0.27 µM

NC(=O)c1cc(N[C@H]2CCNC2=O)nc(-c2ccc(Oc3ccc(C(F)(F)F)cn3)cc2)n1 [compound 99, (S)-6-((2-oxopyrrolidin-3-yl)amino)-2-(4-((5-(trifluoromethyl)pyridin-2-yl)oxy)phenyl)pyrimidine-4-carboxamide]
SNL-induced mechanical hyperalgesia in rats [2]: reduced SNL-induced mechanical hyperalgesia

C[C@H](Nc1cc(C(N)=O)nc(-c2ccc(Oc3cc(C(F)(F)F)ccn3)cc2)n1)C(N)=O [compound 57]
IC50 [1, 3]: 3.25 µM

From patent US9656968B2, “Pyrimidines as sodium channel blockers” (PURDUE PHARMA L.P, priority 2011, dated 2017)
